Measurements published in patent US6649398B2, “Method for inducing bacterial growth using autoinducers” (University of Leicester, priority 1997, dated 2003).

Columns and labels:
Acinetobacter lwoffii = assay: Growth response in serum-SAPI medium (CFU/ml); type: cell-based; conditions: control 1.0 × 10^4
Method: (§1) Bacteria (approximately 50-500 cfu/ml) are inoculated into SAPI minimal medium (6.25 mM NH4NO3, 1.84 mM KH2PO4, 3.35 mM KCl, 1.01 mM MgSO4 and 2.77 mM glucose, pH 7.5) supplemented with 30% (v/v) adult bovine serum (Sigma), and either 1% (v/v) previously made E.coli autoinducer or 50 mM norepinephrine.
(§2) The cultures are grown statically (i.e. without aeration by shaking) for 24 hours at 37° C. in a 5% CO2 incubator.
(§3) It has been shown that certain of these bacteria respond to norepinephrine (NE) and synthesise their own autoinducers, all of which are heat-stable low molecular weight molecules (less than 1000 Da) similar in size to the E. coli autoinducer (Table 4, FIG. 5).

Citrobacter freundii = assay: Growth response in serum-SAPI medium (CFU/ml); type: cell-based; conditions: control 1.9 × 10^6
Method: as §1, §2, §3

Enterobacter aerogenes = assay: Growth response in serum-SAPI medium (CFU/ml); type: cell-based; conditions: control 3.2 × 10^8
Method: as §1, §2, §3

Enterobacter agglomerans = assay: Growth response in serum-SAPI medium (CFU/ml); type: cell-based; conditions: control 2.9 × 10^4
Method: as §1, §2, §3

Enterobacter cloacae = assay: Growth response in serum-SAPI medium (CFU/ml); type: cell-based; conditions: control 7.2 × 10^6
Method: as §1, §2, §3

Enterobacter sakazaki = assay: Growth response in serum-SAPI medium (CFU/ml); type: cell-based; conditions: control 3.0 × 10^6
Method: as §1, §2, §3

Enterococcus faecalis = assay: Growth response in serum-SAPI medium (CFU/ml); type: cell-based; conditions: control 5.0 × 10^5
Method: as §1, §2, §3

Enterococcus faecium = assay: Growth response in serum-SAPI medium (CFU/ml); type: cell-based; conditions: control 2.1 × 10^5
Method: as §1, §2, §3

Escherichia coli = assay: Growth response in serum-SAPI medium (CFU/ml); type: cell-based; conditions: control 7.5 × 10^4
Method: as §1, §2, §3

Hafnia alvei = assay: Growth response in serum-SAPI medium (CFU/ml); type: cell-based; conditions: control 1.2 × 10^4
Method: as §1, §2, §3

Klebsiella oxytoca = assay: Growth response in serum-SAPI medium (CFU/ml); type: cell-based; conditions: control 4.2 × 10^4
Method: as §1, §2, §3

Klebsiella pneumoniae = assay: Growth response in serum-SAPI medium (CFU/ml); type: cell-based; conditions: control 3.1 × 10^4
Method: as §1, §2, §3

Listeria monocytogenes = assay: Growth response in serum-SAPI medium (CFU/ml); type: cell-based; conditions: control 2.5 × 10^5
Method: as §1, §2, §3

Morganella morganii = assay: Growth response in serum-SAPI medium (CFU/ml); type: cell-based; conditions: control 3.7 × 10^4
Method: as §1, §2, §3

Proteus mirabilis = assay: Growth response in serum-SAPI medium (CFU/ml); type: cell-based; conditions: control 1.1 × 10^3
Method: as §1, §2, §3

Pseudomonas aeruginosa = assay: Growth response in serum-SAPI medium (CFU/ml); type: cell-based; conditions: control 3.7 × 10^4
Method: as §1, §2, §3

[1] = test system: Salmonella enterica sv Enteriditis; assay: Growth response in serum-SAPI medium (CFU/ml); type: cell-based; conditions: control 7.5 × 10^5
Method: as §1, §2, §3

Serratia marcescens = assay: Growth response in serum-SAPI medium (CFU/ml); type: cell-based; conditions: control 8.5 × 10^7
Method: as §1, §2, §3

Staphylococcus albus = assay: Growth response in serum-SAPI medium (CFU/ml); type: cell-based; conditions: control 1.1 × 10^3
Method: as §1, §2, §3

Staphylococcus aureus = assay: Growth response in serum-SAPI medium (CFU/ml); type: cell-based; conditions: control 3.2 × 10^5
Method: as §1, §2, §3

[2] = test system: Streptococcus dysgalactiae; assay: Growth response in serum-SAPI medium (CFU/ml); type: cell-based; conditions: control 2.0 × 10^7
Method: as §1, §2, §3

Streptococcus sanguis = assay: Growth response in serum-SAPI medium (CFU/ml); type: cell-based; conditions: control 2.1 × 10^4
Method: as §1, §2, §3

Xanthomonas maltophilia = assay: Growth response in serum-SAPI medium (CFU/ml); type: cell-based; conditions: control 1.7 × 10^5
Method: as §1, §2, §3

Yersinia entercolitica = assay: Growth response in serum-SAPI medium (CFU/ml); type: cell-based; conditions: control 4.2 × 10^4
Method: as §1, §2, §3

bacteria = assay: Growth stimulation assay (serum assay); type: cell-based; conditions: for Stimulation of growth and autoinducer production in serum assay: equivalent mM concentrations
[3] = cited from earlier work

NC[C@H](O)c1ccc(O)c(O)c1 [NE, norepinephrine]
Response (growth), CFU/ml (Acinetobacter lwoffii): 2.9 × 10^7 CFU/ml | Response (growth), CFU/ml (Citrobacter freundii): 3.5 × 10^7 CFU/ml | Response (growth), CFU/ml (Enterobacter aerogenes): 5.5 × 10^8 CFU/ml | Response (growth), CFU/ml (Enterobacter agglomerans): 6.1 × 10^6 CFU/ml | Response (growth), CFU/ml (Enterobacter cloacae): 1.1 × 10^8 CFU/ml | Response (growth), CFU/ml (Enterobacter sakazaki): 4.1 × 10^7 CFU/ml | Response (growth), CFU/ml (Enterococcus faecalis): 5.5 × 10^6 CFU/ml | Response (growth), CFU/ml (Enterococcus faecium): 5.6 × 10^6 CFU/ml | Response (growth), CFU/ml (Escherichia coli): 5.9 × 10^8 CFU/ml | Response (growth), CFU/ml (Hafnia alvei): 3.7 × 10^8 CFU/ml | Response (growth), CFU/ml (Klebsiella oxytoca): 1.6 × 10^8 CFU/ml | Response (growth), CFU/ml (Klebsiella pneumoniae): 6.7 × 10^7 CFU/ml | Response (growth), CFU/ml (Listeria monocytogenes): 3.5 × 10^6 CFU/ml | Response (growth), CFU/ml (Morganella morganii): 1.6 × 10^7 CFU/ml | Response (growth), CFU/ml (Proteus mirabilis): 1.0 × 10^7 CFU/ml | Response (growth), CFU/ml (Pseudomonas aeruginosa): 2.1 × 10^7 CFU/ml | Response (growth), CFU/ml [1]: 1.0 × 10^8 CFU/ml | Response (growth), CFU/ml (Serratia marcescens): 3.4 × 10^8 CFU/ml | Response (growth), CFU/ml (Staphylococcus albus): 1.5 × 10^7 CFU/ml | Response (growth), CFU/ml (Staphylococcus aureus): 5.7 × 10^5 CFU/ml | Response (growth), CFU/ml [2]: 2.4 × 10^6 CFU/ml | Response (growth), CFU/ml (Streptococcus sanguis): 1.1 × 10^4 CFU/ml | Response (growth), CFU/ml (Xanthomonas maltophilia): 2.1 × 10^6 CFU/ml | Response (growth), CFU/ml (Yersinia entercolitica): 1.7 × 10^8 CFU/ml

CCN(CC)CC.O=C(O)O [TEAB, triethylammonium bicarbonate]
Inhibition in the growth stimulation assays (bacteria; concentrations up to 20 mM): not inhibitory

CC(=O)O [acetate]
Stimulation of growth and autoinducer production in serum assay (bacteria): not

Cl.N [ammonium chloride]
Stimulation of growth and autoinducer production in serum assay (bacteria): not

N.N.O=S(=O)(O)O [ammonium sulfate]
Stimulation of growth and autoinducer production in serum assay (bacteria): can stimulate growth and autoinducer production

O=C(O)O [bicarbonate]
Stimulation of growth and autoinducer production in serum assay (bacteria): not

O=C(N[C@H]1COC(=O)[C@@H](NC(=O)c2cccc(O)c2O)COC(=O)[C@@H](NC(=O)c2cccc(O)c2O)COC1=O)c1cccc(O)c1O [enterochelin]
Solubility in organic solvents [3]: soluble in organic solvents

O=CO [formate]
Stimulation of growth and autoinducer production in serum assay (bacteria): not
